Data as given in article PMC12428505, “A Bifunctional SARS-CoV-2 Entry Inhibitor Targeting the Host Protease TMPRSS2 and Viral Spike Protein HR1 Region” (International Journal of Molecular Sciences, 2025).
*1 amine or outer side, *2 acyl side, *3 side chain or, on linkers, in order; H or OH if unused. Where a SMILES comes first, the peptide text is derived from it. [ ]: non-standard residue; d: D form. The star is where a group is joined. PEG24 = NCCOCCOCCOCCOCCOCCOCCOCCOCCOCCOCCOCCOCCOCCOCCOCCOCCOCCOCCOCCOCCOCCOCCOCCOCCC(=O)O; X1 = N=C(N)Nc1ccc(C(=O)Oc2ccc(CC(=O)OCC(=O)*)cc2)cc1; X2 = CN(Cc1cn(CC(=O)[*:2])nn1)[*:1]; X3 = O=C(Cn1cc(CN[*:1])nn1)[*:2]; PEG4 = NCCOCCOCCOCCOCCC(=O)O

tested on: wild-type SARS-CoV-2 PsV; test: not given; conditions: 48 h

| Molecule | IC50 |
| --- | --- |
| CC[C@H](C)[C@H](NC(=O)[C@H](CCCNC(=N)N)NC(=O)[C@H](CCSC)NC(=O)[C@H](CC(C)C)NC(=O)[C@H](CCC(=O)O)NC(=O)[C@H](Cc1ccc(O)cc1)NC(=O)[C@@H](NC(=O)[C@H](CCCCN)NC(=O)[C@H](CCC(N)=O)NC(=O)[C@H](CC(C)C)NC(=O)[C@@H](NC(=O)[C@H](Cc1c[nH]c2ccccc12)NC(=O)[C@H](CCC(=O)O)NC(=O)[C@H](CCCCN)NC(=O)[C@H](CC(=O)O)NC(=O)CCOCCOCCOCCOCCNC(=O)Cn1cc(CN(C)C(=O)COC(=O)Cc2ccc(OC(=O)c3ccc(NC(=N)N)cc3)cc2)nn1)[C@@H](C)CC)[C@@H](C)CC)C(=O)N[C@@H](CC(C)C)C(=O)N[C@@H](CC(=O)O)C(=O)N[C@@H](CCC(=O)O)C(=O)N[C@@H](CC(C)C)C(=O)NCC(=O)N[C@@H](Cc1c[nH]cn1)C(=O)N[C@@H](C)C(=O)N[C@@H](CCC(=O)O)C(=O)N[C@@H](C)C(=O)N[C@@H](CO)C(=O)N[C@@H](CCSC)C(=O)N[C@@H](CCCNC(=N)N)C(=O)N[C@H](C(=O)N[C@@H](CCC(=O)O)C(=O)N[C@@H](CC(=O)O)C(=O)N[C@@H](CC(C)C)C(=O)N[C@H](C(=O)N[C@@H](Cc1ccc(O)cc1)C(=O)N[C@@H](CCC(=O)O)C(=O)N[C@@H](Cc1ccccc1)C(=O)N[C@@H](CCSC)C(=O)N[C@@H](CCCCN)C(N)=O)[C@@H](C)CC)C(C)C [LP4X] (X1-[X2][PEG4]DKEWILQKIYELMRILDELGHAEASMRVEDLIYEFMK-NH2) | 400 ± 60 nM |
| CC[C@H](C)[C@H](NC(=O)[C@H](CCCNC(=N)N)NC(=O)[C@H](CCSC)NC(=O)[C@H](CC(C)C)NC(=O)[C@H](CCC(=O)O)NC(=O)[C@H](Cc1ccc(O)cc1)NC(=O)[C@@H](NC(=O)[C@H](CCCCN)NC(=O)[C@H](CCC(N)=O)NC(=O)[C@H](CC(C)C)NC(=O)[C@@H](NC(=O)[C@H](Cc1c[nH]c2ccccc12)NC(=O)[C@H](CCC(=O)O)NC(=O)[C@H](CCCCN)NC(=O)[C@H](CC(=O)O)NC(=O)CCOCCOCCOCCOCCNC(=O)Cn1cc(CNC(=O)COC(=O)Cc2ccc(OC(=O)c3ccc(NC(=N)N)cc3)cc2)nn1)[C@@H](C)CC)[C@@H](C)CC)C(=O)N[C@@H](CC(C)C)C(=O)N[C@@H](CC(=O)O)C(=O)N[C@@H](CCC(=O)O)C(=O)N[C@@H](CC(C)C)C(=O)NCC(=O)N[C@@H](Cc1c[nH]cn1)C(=O)N[C@@H](C)C(=O)N[C@@H](CCC(=O)O)C(=O)N[C@@H](C)C(=O)N[C@@H](CO)C(=O)N[C@@H](CCSC)C(=O)N[C@@H](CCCNC(=N)N)C(=O)N[C@H](C(=O)N[C@@H](CCC(=O)O)C(=O)N[C@@H](CC(=O)O)C(=O)N[C@@H](CC(C)C)C(=O)N[C@H](C(=O)N[C@@H](Cc1ccc(O)cc1)C(=O)N[C@@H](CCC(=O)O)C(=O)N[C@@H](Cc1ccccc1)C(=O)N[C@@H](CCSC)C(=O)N[C@@H](CCCCN)C(N)=O)[C@@H](C)CC)C(C)C [LP4Z] (X1-[X3][PEG4]DKEWILQKIYELMRILDELGHAEASMRVEDLIYEFMK-NH2) | 450 ± 200 nM |
| CC[C@H](C)[C@H](NC(=O)[C@H](CCCNC(=N)N)NC(=O)[C@H](CCSC)NC(=O)[C@H](CC(C)C)NC(=O)[C@H](CCC(=O)O)NC(=O)[C@H](Cc1ccc(O)cc1)NC(=O)[C@@H](NC(=O)[C@H](CCCCN)NC(=O)[C@H](CCC(N)=O)NC(=O)[C@H](CC(C)C)NC(=O)[C@@H](NC(=O)[C@H](Cc1c[nH]c2ccccc12)NC(=O)[C@H](CCC(=O)O)NC(=O)[C@H](CCCCN)NC(=O)[C@H](CC(=O)O)NC(=O)CCOCCOCCOCCOCCOCCOCCOCCOCCOCCOCCOCCOCCOCCOCCOCCOCCOCCOCCOCCOCCOCCOCCOCCOCCNC(=O)Cn1cc(CN(C)C(=O)COC(=O)Cc2ccc(OC(=O)c3ccc(NC(=N)N)cc3)cc2)nn1)[C@@H](C)CC)[C@@H](C)CC)C(=O)N[C@@H](CC(C)C)C(=O)N[C@@H](CC(=O)O)C(=O)N[C@@H](CCC(=O)O)C(=O)N[C@@H](CC(C)C)C(=O)NCC(=O)N[C@@H](Cc1c[nH]cn1)C(=O)N[C@@H](C)C(=O)N[C@@H](CCC(=O)O)C(=O)N[C@@H](C)C(=O)N[C@@H](CO)C(=O)N[C@@H](CCSC)C(=O)N[C@@H](CCCNC(=N)N)C(=O)N[C@H](C(=O)N[C@@H](CCC(=O)O)C(=O)N[C@@H](CC(=O)O)C(=O)N[C@@H](CC(C)C)C(=O)N[C@H](C(=O)N[C@@H](Cc1ccc(O)cc1)C(=O)N[C@@H](CCC(=O)O)C(=O)N[C@@H](Cc1ccccc1)C(=O)N[C@@H](CCSC)C(=O)N[C@@H](CCCCN)C(N)=O)[C@@H](C)CC)C(C)C [LP24X] (X1-[X2][PEG24]DKEWILQKIYELMRILDELGHAEASMRVEDLIYEFMK-NH2) | 320 ± 30 nM |
| CC[C@H](C)[C@H](NC(=O)[C@H](CCCNC(=N)N)NC(=O)[C@H](CCSC)NC(=O)[C@H](CC(C)C)NC(=O)[C@H](CCC(=O)O)NC(=O)[C@H](Cc1ccc(O)cc1)NC(=O)[C@@H](NC(=O)[C@H](CCCCN)NC(=O)[C@H](CCC(N)=O)NC(=O)[C@H](CC(C)C)NC(=O)[C@@H](NC(=O)[C@H](Cc1c[nH]c2ccccc12)NC(=O)[C@H](CCC(=O)O)NC(=O)[C@H](CCCCN)NC(=O)[C@H](CC(=O)O)NC(=O)CCOCCOCCOCCOCCOCCOCCOCCOCCOCCOCCOCCOCCOCCOCCOCCOCCOCCOCCOCCOCCOCCOCCOCCOCCNC(=O)Cn1cc(CNC(=O)COC(=O)Cc2ccc(OC(=O)c3ccc(NC(=N)N)cc3)cc2)nn1)[C@@H](C)CC)[C@@H](C)CC)C(=O)N[C@@H](CC(C)C)C(=O)N[C@@H](CC(=O)O)C(=O)N[C@@H](CCC(=O)O)C(=O)N[C@@H](CC(C)C)C(=O)NCC(=O)N[C@@H](Cc1c[nH]cn1)C(=O)N[C@@H](C)C(=O)N[C@@H](CCC(=O)O)C(=O)N[C@@H](C)C(=O)N[C@@H](CO)C(=O)N[C@@H](CCSC)C(=O)N[C@@H](CCCNC(=N)N)C(=O)N[C@H](C(=O)N[C@@H](CCC(=O)O)C(=O)N[C@@H](CC(=O)O)C(=O)N[C@@H](CC(C)C)C(=O)N[C@H](C(=O)N[C@@H](Cc1ccc(O)cc1)C(=O)N[C@@H](CCC(=O)O)C(=O)N[C@@H](Cc1ccccc1)C(=O)N[C@@H](CCSC)C(=O)N[C@@H](CCCCN)C(N)=O)[C@@H](C)CC)C(C)C [LP24Z] (X1-[X3][PEG24]DKEWILQKIYELMRILDELGHAEASMRVEDLIYEFMK-NH2) | 330 ± 10 nM |
| Ac-DKEWILQKIYELMRILDELGHAEASMRVEDLIYEFMK-NH2 [LCB1T, reference compound] | 440 ± 40 nM |

tested on: wild-type SARS-CoV-2 PsV; test: microbe, parasite or virus in culture; conditions: Severe acute respiratory syndrome coronavirus 2, Caco-2

| Molecule | IC50 |
| --- | --- |
| CN(C)C(=O)COC(=O)Cc1ccc(OC(=O)c2ccc(NC(=N)N)cc2)cc1 [Camostat] | 4600 ± 2320 nM |
